How the values were obtained:
Type in all cases: cell-based
[1] = biological target: T1, Estrogen receptor (Homo sapiens) (UniProt P03372); assay: Antagonist activity at estrogen receptor alpha ligand binding domain expressed in african green monkey COS7 cells co-transfected with Gal4-LBD by luciferase reporter gene assay relative to control; design: scale not given: the % may be the effect or the level left; details: COS-7
T1 sequence (whole entry): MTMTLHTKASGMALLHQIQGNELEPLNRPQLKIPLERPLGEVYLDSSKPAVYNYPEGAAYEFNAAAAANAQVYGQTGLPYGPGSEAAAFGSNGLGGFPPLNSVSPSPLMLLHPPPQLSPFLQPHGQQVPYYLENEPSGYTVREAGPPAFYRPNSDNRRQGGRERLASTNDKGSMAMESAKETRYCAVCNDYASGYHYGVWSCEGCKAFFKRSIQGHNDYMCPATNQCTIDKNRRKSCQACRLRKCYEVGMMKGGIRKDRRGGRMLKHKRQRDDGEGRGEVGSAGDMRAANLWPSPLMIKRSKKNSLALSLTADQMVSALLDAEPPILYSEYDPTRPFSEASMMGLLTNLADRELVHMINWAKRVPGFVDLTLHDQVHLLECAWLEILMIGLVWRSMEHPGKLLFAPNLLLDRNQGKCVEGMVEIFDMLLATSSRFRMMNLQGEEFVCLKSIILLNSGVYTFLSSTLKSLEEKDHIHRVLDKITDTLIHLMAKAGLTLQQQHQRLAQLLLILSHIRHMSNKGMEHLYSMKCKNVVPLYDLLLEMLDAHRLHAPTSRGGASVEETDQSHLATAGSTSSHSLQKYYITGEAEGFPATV

Progesterone receptor [2] = biological target: T2, Progesterone receptor (Homo sapiens, UniProt P06401); assay: Displacement of progesterone from progesterone receptor in human T47D cells after 3 hrs
T2 sequence (P06401 whole entry): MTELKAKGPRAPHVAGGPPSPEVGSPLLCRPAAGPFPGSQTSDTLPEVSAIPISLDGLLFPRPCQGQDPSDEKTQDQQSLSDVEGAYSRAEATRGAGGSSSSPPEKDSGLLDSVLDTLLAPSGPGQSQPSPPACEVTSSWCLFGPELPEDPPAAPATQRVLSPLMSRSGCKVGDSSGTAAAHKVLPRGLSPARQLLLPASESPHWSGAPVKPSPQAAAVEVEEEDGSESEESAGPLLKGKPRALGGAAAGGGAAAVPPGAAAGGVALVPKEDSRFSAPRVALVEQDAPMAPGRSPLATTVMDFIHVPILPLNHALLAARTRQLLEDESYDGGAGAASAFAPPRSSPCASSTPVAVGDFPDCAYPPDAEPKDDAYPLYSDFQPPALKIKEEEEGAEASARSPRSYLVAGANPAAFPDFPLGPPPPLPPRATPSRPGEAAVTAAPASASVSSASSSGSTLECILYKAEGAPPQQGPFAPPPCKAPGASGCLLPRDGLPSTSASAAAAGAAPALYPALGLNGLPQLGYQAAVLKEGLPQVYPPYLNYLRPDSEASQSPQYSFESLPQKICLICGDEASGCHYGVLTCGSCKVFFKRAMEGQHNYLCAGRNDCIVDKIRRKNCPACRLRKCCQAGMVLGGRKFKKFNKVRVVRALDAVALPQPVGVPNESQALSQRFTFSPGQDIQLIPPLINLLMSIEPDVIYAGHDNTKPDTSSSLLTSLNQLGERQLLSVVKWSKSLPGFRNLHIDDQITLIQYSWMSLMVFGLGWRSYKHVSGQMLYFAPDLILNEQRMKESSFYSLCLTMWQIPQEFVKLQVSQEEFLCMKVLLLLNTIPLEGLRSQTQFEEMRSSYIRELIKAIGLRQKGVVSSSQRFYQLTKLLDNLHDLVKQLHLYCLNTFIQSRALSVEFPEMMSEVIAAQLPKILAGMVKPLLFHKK

[3] = biological target: T3, Progesterone receptor (Homo sapiens) (UniProt P06401); assay: Activation of progesterone receptor in human T47D cells after 20 hrs by PRE-tagged luciferase reporter gene assay relative to control
T3 sequence (whole entry): T2 sequence (P06401 whole entry)

[4] = biological target: T4, Glucocorticoid receptor (Homo sapiens) (UniProt P04150); assay: Antagonist activity at glucocorticoid receptor ligand binding domain expressed in african green monkey COS7 cells co-transfected with Gal4-LBD by luciferase reporter gene assay relative to control; design: scale not given: the % may be the effect or the level left; details: COS-7
T4 sequence (whole entry): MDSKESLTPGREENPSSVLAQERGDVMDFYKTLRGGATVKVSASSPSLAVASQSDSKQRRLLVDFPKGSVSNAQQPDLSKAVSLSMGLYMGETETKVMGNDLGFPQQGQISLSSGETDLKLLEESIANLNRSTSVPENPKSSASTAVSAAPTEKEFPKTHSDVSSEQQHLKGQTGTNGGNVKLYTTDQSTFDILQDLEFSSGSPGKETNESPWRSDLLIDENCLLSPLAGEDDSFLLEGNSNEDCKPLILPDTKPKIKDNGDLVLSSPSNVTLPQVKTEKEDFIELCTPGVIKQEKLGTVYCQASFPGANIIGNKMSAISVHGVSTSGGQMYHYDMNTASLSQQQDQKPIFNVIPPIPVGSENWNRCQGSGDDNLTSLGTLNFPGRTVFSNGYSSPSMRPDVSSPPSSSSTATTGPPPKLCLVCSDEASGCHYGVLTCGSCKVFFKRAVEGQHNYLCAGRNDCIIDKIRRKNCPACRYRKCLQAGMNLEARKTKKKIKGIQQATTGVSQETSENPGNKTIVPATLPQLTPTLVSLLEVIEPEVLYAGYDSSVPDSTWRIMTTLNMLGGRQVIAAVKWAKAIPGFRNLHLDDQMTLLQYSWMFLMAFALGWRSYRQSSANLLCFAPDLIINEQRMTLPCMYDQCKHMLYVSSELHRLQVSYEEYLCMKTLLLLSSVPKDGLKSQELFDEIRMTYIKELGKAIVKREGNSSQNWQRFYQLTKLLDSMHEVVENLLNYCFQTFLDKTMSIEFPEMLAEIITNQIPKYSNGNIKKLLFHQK

Estrogen receptor beta [5] = biological target: T5, Estrogen receptor beta (Homo sapiens, UniProt Q92731); assay: Antagonist activity at estrogen receptor beta ligand binding domain expressed in african green monkey COS7 cells co-transfected with Gal4-LBD by luciferase reporter gene assay relative to control; design: scale not given: the % may be the effect or the level left; details: COS-7
T5 sequence (Q92731 whole entry, the tested form may be a part): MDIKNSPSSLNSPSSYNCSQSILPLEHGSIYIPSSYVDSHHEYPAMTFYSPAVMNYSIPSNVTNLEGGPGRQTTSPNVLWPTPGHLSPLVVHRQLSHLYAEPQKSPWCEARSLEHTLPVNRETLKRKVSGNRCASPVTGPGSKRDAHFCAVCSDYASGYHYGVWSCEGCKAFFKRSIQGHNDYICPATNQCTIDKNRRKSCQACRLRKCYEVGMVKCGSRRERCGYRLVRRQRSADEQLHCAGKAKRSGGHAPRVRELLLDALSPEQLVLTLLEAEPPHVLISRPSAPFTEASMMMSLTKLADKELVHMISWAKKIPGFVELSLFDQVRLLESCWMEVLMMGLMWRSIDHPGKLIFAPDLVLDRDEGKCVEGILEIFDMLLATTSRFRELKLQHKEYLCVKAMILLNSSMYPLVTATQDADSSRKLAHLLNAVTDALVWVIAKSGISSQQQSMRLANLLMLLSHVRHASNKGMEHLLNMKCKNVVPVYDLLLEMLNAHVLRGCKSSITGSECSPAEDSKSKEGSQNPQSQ

Estrogen receptor beta [6] = biological target: T5, Estrogen receptor beta; assay: Agonist activity at estrogen receptor beta ligand binding domain expressed in african green monkey COS7 cells co-transfected with Gal4-LBD up to 10 uM by luciferase reporter gene assay; details: cos-7
Glucocorticoid receptor [7] = biological target: T6, Glucocorticoid receptor (Homo sapiens, UniProt P04150); assay: Agonist activity at glucocorticoid receptor ligand binding domain expressed in african green monkey COS7 cells co-transfected with Gal4-LBD up to 10 uM by luciferase reporter gene assay; details: cos-7
T6 sequence (P04150 whole entry): T4 sequence (whole entry)

[8] = biological target: T3, Progesterone receptor (Homo sapiens); assay: Ratio of compound EC50 to progesterone EC50 for progesterone receptor in human T47D cells
Glucocorticoid receptor [9] = biological target: T6, Glucocorticoid receptor; assay: Antagonist activity at glucocorticoid receptor ligand binding domain expressed in african green monkey COS7 cells co-transfected with Gal4-LBD up to 10 uM by luciferase reporter gene assay; details: cos-7
Progesterone receptor [10] = biological target: T2, Progesterone receptor; assay: Activation of progesterone receptor in human T47D cells up to 1000 nM after 20 hrs by PRE-tagged luciferase reporter gene assay
Estrogen receptor = biological target: T7, Estrogen receptor (Homo sapiens, UniProt P03372); assay: Antagonist activity at estrogen receptor alpha ligand binding domain expressed in african green monkey COS7 cells co-transfected with Gal4-LBD up to 10 uM by luciferase reporter gene assay; details: cos-7
T7 sequence (P03372 whole entry): T1 sequence (whole entry)

CC1(C)[C@H](O)CC[C@]2(C)[C@@]3(C)c4[nH]c5ccccc5c4C[C@@H]3CC[C@@]12O [LECANINDOLE D]
Activity [1]: 19% | IC50 (Progesterone receptor [2]): 5.5 nM | Efficacy [3]: 68% | Activity [4]: 58% | Activity (Estrogen receptor beta [5]): 64% | EC50 (Estrogen receptor beta [6]): Not Active | EC50 (Glucocorticoid receptor [7]): Not Active | Ratio EC50 [8]: 10

CC1(C)C(=O)CC[C@]2(C)[C@@]3(C)c4[nH]c5ccccc5c4C[C@@H]3CC[C@@]12O [LECANINDOLE B]
IC50 (Glucocorticoid receptor [9]): Not Active | Efficacy [3]: < 1% | EC50 (Progesterone receptor [10]): Not Active | Activity (Estrogen receptor beta [5]): 12% | EC50 (Estrogen receptor beta [6]): Not Active | EC50 (Glucocorticoid receptor [7]): Not Active | IC50 (Estrogen receptor): Not Active

From ChEMBL document CHEMBL1154793, “The lecanindoles, nonsteroidal progestins from the terrestrial fungus Verticillium lecanii 6144” (J Nat Prod, 2009)
